Measured values from PubChem BioAssay (NCI).
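Five concentrations, 48 hours, 96-well plates. TGI is the concentration that stops growth completely.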

Tests used:
Experiment in all cases: NCI tumour cell line growth inhibition, 48 h
[1] = test system: TK-10 renal
[2] = test system: HCC-2998 colon
[3] = test system: SNB-19 CNS
[4] = test system: CAKI-1 renal
[5] = test system: SK-OV-3 ovarian
[6] = test system: A549 NSCLC
[7] = test system: MOLT-4 leukemia
[8] = test system: UACC-62 melanoma
[9] = test system: HOP-18 NSCLC
[10] = test system: OVCAR-3 ovarian
[11] = test system: RPMI-8226 leukemia
[12] = test system: UO-31 renal
[13] = test system: M19-MEL melanoma
[14] = test system: HCT-15 colon
[15] = test system: ACHN renal
[16] = test system: COLO 205 colon
[17] = test system: SF-268 CNS
[18] = test system: HCT-116 colon
[19] = test system: HT29 colon
[20] = test system: SK-MEL-5 melanoma
[21] = test system: HOP-92 NSCLC
[22] = test system: U251 CNS
[23] = test system: SW-620 colon
[24] = test system: LXFL 529 NSCLC
[25] = test system: KM12 colon
[26] = test system: HL-60(TB) leukemia
[27] = test system: IGROV1 ovarian
[28] = test system: HOP-62 NSCLC
[29] = test system: DMS 273 small cell lung
[30] = test system: SF-295 CNS
[31] = test system: OVCAR-4 ovarian
[32] = test system: OVCAR-5 ovarian
[33] = test system: EKVX NSCLC
[34] = test system: LOX IMVI melanoma
[35] = test system: CCRF-CEM leukemia
[36] = test system: DMS 114 small cell lung
[37] = test system: NCI-H522 lung
[38] = test system: SF-539 CNS
[39] = test system: SNB-78 CNS
[40] = test system: M14 melanoma
[41] = test system: A498 renal
[42] = test system: SK-MEL-28 melanoma
[43] = test system: OVCAR-8 ovarian
[44] = test system: KM20L2 colon
[45] = test system: 786-0 renal
[46] = test system: DLD-1 colon
[47] = test system: SR leukemia
[48] = test system: MALME-3M melanoma
[49] = test system: SNB-75 CNS
[50] = test system: UACC-257 melanoma
[51] = test system: NCI-H226 lung
[52] = test system: RXF 393 renal
[53] = test system: SN12C renal
[54] = test system: NCI-H460 lung
[55] = test system: NCI-H23 lung
[56] = test system: RXF-631 renal
[57] = test system: K-562 leukemia
[58] = test system: SK-MEL-2 melanoma
[59] = test system: XF 498 CNS

With C=CCOC1=C2CC[C@H](O)[C@@]2(C)CCC1=O the TGI [1] was > 100 µM, the TGI [2] was > 100 µM and the TGI [3] was > 100 µM. The TGI [4] was > 100 µM, the TGI [5] was > 100 µM and the TGI [6] was > 100 µM. The TGI [7] was > 100 µM, the TGI [8] was > 100 µM and the TGI [9] was > 100 µM. The TGI [10] was > 100 µM, the TGI [11] was > 100 µM and the TGI [12] was > 100 µM. The TGI [13] was > 100 µM, the TGI [14] was > 100 µM and the TGI [15] was > 100 µM. For the same molecule, the TGI [16] was > 100 µM, the TGI [17] was > 100 µM and the TGI [18] was > 100 µM. For the same molecule, the TGI [19] was > 100 µM, the TGI [20] was > 100 µM and the TGI [21] was > 100 µM. The TGI [22] was > 100 µM, the TGI [23] was > 100 µM and the TGI [24] was > 100 µM. For the same molecule, the TGI [25] was > 100 µM, the TGI [26] was > 100 µM and the TGI [27] was > 100 µM. The TGI [28] was > 100 µM, the TGI [29] was > 100 µM and the TGI [30] was > 100 µM. For the same molecule, the TGI [31] was > 100 µM, the TGI [32] was > 100 µM and the TGI [33] was > 100 µM. For the same molecule, the TGI [34] was > 100 µM, the TGI [35] was > 100 µM and the TGI [36] was > 100 µM. For the same molecule, the TGI [37] was > 100 µM, the TGI [38] was > 100 µM and the TGI [39] was > 100 µM. For the same molecule, the TGI [40] was > 100 µM, the TGI [41] was > 100 µM and the TGI [42] was > 100 µM. The TGI [43] was > 100 µM, the TGI [44] was > 100 µM and the TGI [45] was > 100 µM. The TGI [46] was > 100 µM, the TGI [47] was > 100 µM and the TGI [48] was > 100 µM. The TGI [49] was > 100 µM, the TGI [50] was > 100 µM and the TGI [51] was > 100 µM. The TGI [52] was > 100 µM, the TGI [53] was > 100 µM and the TGI [54] was > 100 µM.

For NC1=NN(c2ccccc2)C(=O)C1C(=O)C(=O)NC1C2CC3CC(C2)CC1C3 (stereo not drawn), the TGI [1] was > 100 µM, the TGI [2] was > 100 µM and the TGI [3] was > 100 µM. The TGI [5] was > 100 µM, the TGI [6] was > 100 µM and the TGI [7] was > 100 µM. For the same molecule, the TGI [8] was > 100 µM, the TGI [9] was > 100 µM and the TGI [10] was > 100 µM. For the same molecule, the TGI [12] was > 100 µM, the TGI [13] was > 100 µM and the TGI [14] was > 100 µM. For the same molecule, the TGI [15] was > 100 µM, the TGI [16] was > 100 µM and the TGI [55] was > 100 µM. For the same molecule, the TGI [17] was > 100 µM, the TGI [18] was > 100 µM and the TGI [19] was > 100 µM. The TGI [20] was > 100 µM, the TGI [21] was > 100 µM and the TGI [56] was > 100 µM. For the same molecule, the TGI [57] was > 100 µM, the TGI [22] was > 100 µM and the TGI [23] was > 100 µM. The TGI [24] was > 100 µM, the TGI [25] was > 100 µM and the TGI [26] was > 100 µM. For the same molecule, the TGI [27] was > 100 µM, the TGI [28] was > 100 µM and the TGI [29] was > 100 µM. The TGI [30] was > 100 µM, the TGI [31] was > 100 µM and the TGI [32] was > 100 µM. For the same molecule, the TGI [33] was > 100 µM, the TGI [34] was > 100 µM and the TGI [35] was > 100 µM. The TGI [36] was > 100 µM, the TGI [38] was > 100 µM and the TGI [39] was > 100 µM. The TGI [40] was > 100 µM, the TGI [42] was > 100 µM and the TGI [43] was > 100 µM. The TGI [44] was > 100 µM, the TGI [45] was > 100 µM and the TGI [46] was > 100 µM. The TGI [47] was > 100 µM, the TGI [58] was > 100 µM and the TGI [48] was > 100 µM. For the same molecule, the TGI [50] was > 100 µM, the TGI [51] was > 100 µM and the TGI [52] was > 100 µM. The TGI [53] was > 100 µM and the TGI [54] was > 100 µM.

O=S1Cc2ccccc2CS1 (stereo not drawn) showed a TGI [1] of 55.6 µM, a TGI [2] of 93.2 µM and a TGI [59] of 32.6 µM. For the same molecule, the TGI [3] was > 100 µM, the TGI [4] was 31.1 µM and the TGI [5] was > 100 µM. For the same molecule, the TGI [6] was > 100 µM, the TGI [7] was 56 µM and the TGI [8] was 28.9 µM. For the same molecule, the TGI [9] was > 100 µM, the TGI [10] was 29 µM and the TGI [11] was 38.2 µM. The TGI [12] was 56.4 µM, the TGI [13] was 33.7 µM and the TGI [14] was > 100 µM. For the same molecule, the TGI [15] was > 100 µM, the TGI [16] was 28.8 µM and the TGI [55] was 28.3 µM. For the same molecule, the TGI [17] was > 100 µM, the TGI [18] was 57.2 µM and the TGI [19] was 30.1 µM. For the same molecule, the TGI [20] was > 100 µM, the TGI [21] was 34.1 µM and the TGI [56] was > 100 µM. It also gave a TGI [57] of 49.9 µM, a TGI [22] of 24.5 µM and a TGI [23] of 27.1 µM. For the same molecule, the TGI [24] was 28.7 µM, the TGI [25] was > 100 µM and the TGI [26] was 40.9 µM. The TGI [27] was > 100 µM, the TGI [29] was 29.8 µM and the TGI [30] was > 100 µM. The TGI [31] was 30.6 µM, the TGI [32] was 56.9 µM and the TGI [33] was 44.9 µM. For the same molecule, the TGI [34] was 21.3 µM, the TGI [37] was 19.7 µM and the TGI [38] was 24.5 µM. The TGI [39] was 36.7 µM, the TGI [40] was 28.3 µM and the TGI [41] was > 100 µM. For the same molecule, the TGI [42] was 28.3 µM, the TGI [43] was 28.7 µM and the TGI [44] was > 100 µM. It also gave a TGI [45] of 29.2 µM, a TGI [46] of 33.5 µM and a TGI [47] of 64.4 µM. The TGI [48] was 26.4 µM, the TGI [49] was 61.5 µM and the TGI [50] was 32 µM. For the same molecule, the TGI [51] was > 100 µM, the TGI [52] was 29.5 µM and the TGI [53] was 28.3 µM. For the same molecule, the TGI [54] was 64.6 µM.

For O=S1(=O)COc2ccccc2-c2ncncc21, the TGI [1] was > 100 µM, the TGI [2] was > 100 µM and the TGI [3] was > 100 µM. The TGI [4] was > 100 µM, the TGI [5] was > 100 µM and the TGI [6] was > 100 µM. The TGI [7] was > 100 µM, the TGI [8] was > 100 µM and the TGI [9] was > 100 µM. For the same molecule, the TGI [10] was > 100 µM, the TGI [11] was > 100 µM and the TGI [12] was > 100 µM. For the same molecule, the TGI [13] was > 100 µM, the TGI [14] was > 100 µM and the TGI [15] was > 100 µM. For the same molecule, the TGI [16] was > 100 µM, the TGI [55] was > 100 µM and the TGI [17] was > 100 µM. The TGI [18] was > 100 µM, the TGI [19] was > 100 µM and the TGI [20] was > 100 µM. The TGI [21] was > 100 µM, the TGI [56] was > 100 µM and the TGI [57] was > 100 µM. For the same molecule, the TGI [22] was > 100 µM, the TGI [23] was > 100 µM and the TGI [24] was > 100 µM. The TGI [25] was > 100 µM, the TGI [26] was > 100 µM and the TGI [27] was > 100 µM. The TGI [28] was > 100 µM, the TGI [30] was > 100 µM and the TGI [31] was > 100 µM. The TGI [32] was > 100 µM, the TGI [33] was > 100 µM and the TGI [34] was > 100 µM. For the same molecule, the TGI [35] was > 100 µM, the TGI [36] was > 100 µM and the TGI [37] was > 100 µM. For the same molecule, the TGI [38] was > 100 µM, the TGI [39] was > 100 µM and the TGI [40] was > 100 µM. For the same molecule, the TGI [41] was > 100 µM, the TGI [42] was > 100 µM and the TGI [43] was > 100 µM. The TGI [44] was > 100 µM, the TGI [45] was > 100 µM and the TGI [46] was > 100 µM. The TGI [47] was > 100 µM, the TGI [48] was > 100 µM and the TGI [49] was > 100 µM. For the same molecule, the TGI [50] was > 100 µM, the TGI [51] was > 100 µM and the TGI [52] was > 100 µM. For the same molecule, the TGI [53] was > 100 µM and the TGI [54] was > 100 µM.
